Data published in publication PMC9609429 (Pharmaceuticals, 2022).

What was measured:
α1-adrenoceptor = α1-adrenoceptor radioligand binding assay ([3H]-prazosin, rat cerebral cortex); settings: rat cortex tissue
Experimental: The α1-, α2-, and β1-adrenoceptor radioligand binding assay was carried out on the rat cerebral cortex. [^3H]-prazosin (19.5 Ci/mmol, α1-adrenoceptor), [^3H]-clonidine (70.5 Ci/mmol, α2-adrenoceptor), and [^3H]-CGP-12177 (48 Ci/mmol, β1-adrenergic receptor) were used as specific ligands. The brains were homogenized using ULTRA-TURRAX homogenizer in 10 mL of an ice-cold 50 mM Tris–HCl buffer (pH 7.6). Homogenates were centrifuged at 20,000× g for 20 min (0–4 °C). Next, the cell pellet was resuspended in the Tris–HCl buffer and centrifuged again. Radioligand binding assays were performed in plates (MultiScreen/Millipore). The final incubation mixture (volume 300 μL) consisted of 240 μL of the tissue suspension, 30 μL of radioligand solution, and 30 μL of the buffer containing 7–8 concentrations of the tested compound. […] The incubation was terminated by rapid filtration through Whatman GF/C filters using a vacuum manifold (Millipore). The filters were then washed twice with the assay buffer and placed in scintillation vials with a liquid scintillation cocktail. Radioactivity was measured in a WALLAC 1409 DSA liquid scintillation counter (Perkin Elmer, Waltham, MA, USA). All the assays were made in duplicates and the inhibitory constants (Ki) were estimated.

[1] = system: adrenaline-induced arrhythmia in rats; settings: administered intravenously; cited from earlier work

Row | Adrenergic Receptors—pKi α1 (α1-adrenoceptor) | Structure (SMILES) | ED50 (adrenaline-induced arrhythmia) [1]
1 | 8.04 | Cc1ccc(N(CC2=NCCN2)c2cccc(O)c2)cc1 [Phentolamine, phentolamine, reference compound] | –
2 | – | COc1ccccc1OCCNCC(O)COc1cccc2[nH]c3ccccc3c12 (centres unmarked) [carvedilol] | 0.36 mg/kg
